{"source": "paper PMC9983306", "about": "“Structurally Defined Water‐Soluble Metallofullerene Derivatives towards Biomedical Applications” (Angewandte Chemie (International Ed. in English), 2022)", "assay": "T1 relaxivity by NMR inversion-recovery", "type": "physicochemical", "conditions": "per molecule concentration", "description": "The T 1 relaxivity values of water‐soluble Gd MBTs were tested on 60 MHz (1.4 T) and 300 MHz (7.1 T) NMR spectrometers (Table S1), together with a representative commercial GBCA gadodiamide (i.e., Omniscan^TM). […] The enhanced contrast was directly visualized on a 1.0 T MRI scanner, with 20 μM and 5 μM 8 d, 8 d′, 8 e, and gadodiamide (Figure 5a), and the imaging contrast is consistent with the measured relaxivity values. The preclusion of ion leakage by the robust EMF cage dictates that the real limiting factor of MBT contrast agents is the toxicity of the MBT structure, not individual Gd^3+ ions, which means the molecular relaxivity of the MBTs is the more appropriate and relevant parameter for clinical evaluations. […]\nDynamic light scatt ering ex periments w ere performed using a Malvern Z etasizer Nano Z S90 instrument w ith a standard laser source (4mW, 633nm), to measure the hydrodynamic s ize of the aggregates formed by the samples in s olution. 1 uM sample concentrations were used for all the samples measured. […]\nSamples 8b, 8b′ and 8c (16 µM, or 16800 ppb Lu) were taken in dialysis bags (MWCO = 1kD) and dialyzed against 1 50 mL PBS 1x f or 7 days without changing diasylate (outside solution in the beaker). […] With a detection limit < 0.1 ppb, no Lu3+ ions w ere detected in the three solutions, confirming the cage confinement of the metal ions. […]"}
{"smiles": "CNC(=O)CN(CCN(CCN(CC(=O)[O-])CC(=O)NC)CC(=O)[O-])CC(=O)[O-].[Gd+3]", "note": "[gadodiamide]", "values": [{"measurement": "r1 (1.4 T), T1 relaxivity", "setting": "60 MHz (1.4 T) NMR", "value": 4.4, "unit": "mM⁻¹ s⁻¹"}, {"measurement": "r1 (7.1 T), T1 relaxivity", "setting": "300 MHz (7.1 T) NMR", "value": "3.9 mM-1S-1"}]}
